In paper PMC3521585 (Journal of medicinal chemistry, 2009):

Target: Substance P receptors (GPI) (Cavia porcellus, UniProt P30547)
Test: Substance P antagonist assay in guinea pig ileum with naloxone
Format: cell-based
Conditions: against Substance P induced contraction, 1 μM naloxone, n = 4

Substance P receptors (GPI), sequence (P30547 whole entry): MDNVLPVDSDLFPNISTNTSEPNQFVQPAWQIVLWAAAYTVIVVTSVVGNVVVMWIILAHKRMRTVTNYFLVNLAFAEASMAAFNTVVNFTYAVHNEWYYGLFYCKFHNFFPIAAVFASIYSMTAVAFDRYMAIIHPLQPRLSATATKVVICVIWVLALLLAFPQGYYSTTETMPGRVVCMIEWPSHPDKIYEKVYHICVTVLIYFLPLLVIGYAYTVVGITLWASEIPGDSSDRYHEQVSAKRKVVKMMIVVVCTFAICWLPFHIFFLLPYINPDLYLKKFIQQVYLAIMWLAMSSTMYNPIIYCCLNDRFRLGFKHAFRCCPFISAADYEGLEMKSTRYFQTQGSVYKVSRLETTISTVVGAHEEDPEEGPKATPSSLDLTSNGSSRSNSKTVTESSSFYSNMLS

SMILES: CC(=O)N[C@@H](Cc1c[nH]c2ccccc12)C(=O)OCc1cc(C(F)(F)F)cc(C(F)(F)F)c1 [L-732,138, Ac-Trp-O-3’,5’-Bzl(CF3)2]
- Ke, GPI, Substance P antagonist: 250 ± 87 nM
